Test results taken from PMC7771544 (ChemMedChem, 2016).

Legend:
[1] = target: MST3 (Homo sapiens, UniProt Q9Y6E0); experiment: 33P-radiolabeled kinase assay; assay type: biochemical
[2] = system: CDK2; conditions: cited from earlier work
[3] = system: CDK1; conditions: cited from earlier work

MST3, sequence (Q9Y6E0 1-431 isoform Q9Y6E0-2): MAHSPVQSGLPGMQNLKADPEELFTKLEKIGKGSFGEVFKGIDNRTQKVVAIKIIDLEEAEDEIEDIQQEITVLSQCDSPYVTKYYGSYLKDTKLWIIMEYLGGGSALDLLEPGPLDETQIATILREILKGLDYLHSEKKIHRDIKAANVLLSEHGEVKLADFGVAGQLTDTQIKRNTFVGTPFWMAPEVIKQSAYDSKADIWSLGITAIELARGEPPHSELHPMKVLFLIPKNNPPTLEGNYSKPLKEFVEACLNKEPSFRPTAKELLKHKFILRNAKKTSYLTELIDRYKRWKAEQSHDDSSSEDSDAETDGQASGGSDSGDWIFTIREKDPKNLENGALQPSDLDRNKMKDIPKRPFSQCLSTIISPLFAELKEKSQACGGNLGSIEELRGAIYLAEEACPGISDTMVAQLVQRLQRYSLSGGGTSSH

In the case of `COCCOc1ccc2c(c1)ncn2-c1ccc2cccc(N3CCC(N)CC3)c2n1` [CP-673451], the IC50 [1] is reported as 0.26 µM.

With `CCN(CC)CCNC(=O)c1c(C)[nH]c(/C=C2\C(=O)Nc3ccc(F)cc32)c1C` [sunitinib] the “fold difference in MST3 inhibitory activity” value ([1]; less active than the related compound(s) of the same scaffold) was 20 fold.

In the case of CDK1/2 inhibitor III, the “activity against CDK2” value [2] is given as “sub-nanomolar” and the “activity against CDK1” value [3] is given as “sub-nanomolar”.

Compound `COc1cc(Nc2c(C#N)cnc3cc(OCCCN4CCN(C)CC4)c(OC)cc23)c(Cl)cc1Cl` [bosutinib] has an IC50 [1] of 0.003 µM.
